From PMC5344255, “Design, Synthesis and Biochemical Evaluation of Novel Selective Estrogen Receptor Ligand Conjugates Incorporating an Endoxifen-Combretastatin Hybrid Scaffold” (Biomedicines, 2016)
pIC50: −log10 of the molar value. Marks after values point to notes of the source that are not given here.

Legend:
[1] = tested on: MCF-7 human breast cancer cells; assay: MTT assay for antiproliferative effects in MCF-7; assay type: cell-based; settings: Homo sapiens, MCF7, MCF-7, MTT assay
Summary of the method: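 MCF-7 grown in MEM and MDA-MB-231 in D-MEM, each with 10% FBS, at 37 °C and 5% CO2. Viability by MTT reduction to formazan by metabolically active cells, plotted against compound concentration. Three experiments in triplicate, given as mean ± SEM.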

[2] = tested on: SF539; assay: NCI 60 cell line screen; assay type: cell-based, human; settings: SF539 (CNS Cancer)
[3] = tested on: MDA-MB-231/ATCC; assay: NCI 60 cell line screen; assay type: cell-based, human; settings: MDA-MB-231/ATCC (Breast Cancer); one-dose 10 µM
[4] = tested on: UACC-257; assay: NCI 60 cell line screen; assay type: cell-based, human; settings: UACC-257 (Melanoma); one-dose 10 µM
[5] = tested on: OVCAR-3; assay: NCI 60 cell line screen; assay type: cell-based, human; settings: OVCAR-3 (Ovarian Cancer); one-dose 10 µM

## CCC(=C(c1ccc(O)cc1)c1ccc(OCCN(C)C(=O)/C(=C/c2ccc(OC)c(O)c2)c2cc(OC)c(OC)c(OC)c2)cc1)c1ccc(O)cc1 (mixture of isomers) [Compound 28, (E)-N-(2-{4-[(E/Z)-1,2-Bis-(4-hydroxyphenyl)but-1-enyl]-phenoxy}ethyl)-3-(3-hydroxy-4-methoxyphenyl)-N-methyl-2-(3,4,5-trimethoxyphenyl)acrylamide]
[1]; mean of at least three experiments in triplicate
  pIC50: 8.30
[1]; values in nM
  IC50: 0.005 nM
[2]; Homo sapiens, SF-539, five-dose screen
  GI50: 1180 nM
[2]; one-dose 10 µM
  GI% (10^−5 M): 100 ^d,n %
[3]
  GI% (10^−5 M): 1.61%
[4]
  GI% (10^−5 M): 2.83%
[5]
  GI% (10^−5 M): 1%
